The values below come from patent US20030003396A1, “Optical data carrier comprising a merocyanine dye as light-absorbent compound in the information layer” (priority 2001, published 2003).

The structures appear in SMILES notation. Marks after values point to notes of the source that are not given here.

Data set [1] can be described thus: Solubility in coating solvent.
The nature of data set [2]: UV absorption spectra measured in solution. The class given is physicochemical. The note with it: for ε (molar extinction coefficient): at absorption maximum; for Δλ (solvent-induced wavelength shift): |λDMF−λdioxane|. An excerpt: In the case of a write-once optical data carrier according to the invention which is written on and read by means of the light of a blue laser, preference is given to merocyanine dyes whose absorption maximum λmax1 is in the range from 340 to 410 nm, […] half of the […] one tenth of the absorbance value at λmax1 are preferably not more than 50 nm apart. Such a merocyanine dye preferably has no longer-wavelength maximum λmax2 up to a wavelength of 500 nm, particularly preferably up to 550 nm, very particularly preferably up to 600 nm.
The absorption spectra are measured, for example, in solution.
Suitable merocyanines having the required spectral properties are, in particular, those in which the dipole moment change Δμ=|μg−μag|, i.e. the positive difference between the dipole moments in the ground state and in the first excited state, is very small, preferably <5 D, particularly preferably <2 D. A method of determining such a dipole moment change Δμ is described, for example, in F. Würthner et al., Angew. Chem. 1997, 109, 2933, and in the literature cited therein. A low solvent-induced wavelength shift (dioxane/DMF) is likewise a suitable selection criterion. Preference is given to merocyanines whose solvent-induced wavelength shift Δλ=|λDMF−λdioxane|, i.e. the positive difference between the absorption wavelengths in the solvents dimethylformamide and dioxane, is <20 nm, particularly preferably <10 nm, very particularly preferably <5 nm

The mark [3] stands for this setting: in TFP (2,2,3,3-tetrafluoropropanol).
Setting [4] is: Table 2, on the short wavelength flank.

`CCOC(=O)C1=C(C#N)C(=O)N(C)C(=O)/C1=C/C=C/N(C)C` [Example 2] came in with a Solubility in data set [1] (setting [3]) greater than 2%. In data set [2], the “ε (molar extinction coefficient)” value came to 31630 L/mol/cm and the “Δλ (solvent-induced wavelength shift)” value is given as 25 nm. In data set [2] (in DMF), the “UV λmax” value came to 567 nm. In addition, in data set [2] (in dioxane), the “UV λmax” value is listed as 542 nm. This molecule returned a λ1/2-λ1/10 in data set [2] (short wavelength flank) of 42 nm.

For the molecule `CCOC(=O)C1=C(C#N)C(=O)N(C)C(=O)/C1=C/C=C1\N(C)c2ccccc2C1(C)C` [Example 1], the Solubility in data set [1] (setting [3]) is greater than 2%. In data set [2], the “ε (molar extinction coefficient)” value stood at 56010 L/mol/cm and the “Δλ (solvent-induced wavelength shift)” value is recorded as 22 nm. Besides, the “UV λmax” value in data set [2] (in DMF) came out at 609 nm. In addition, the “UV λmax” value in data set [2] (in dioxane) is 587 nm. Further, the λ1/2-λ1/10 in data set [2] (long wavelength flank) is listed as 27 nm.

On to `CCCCCCCCCCCCN1C(=O)/C(=C/c2ccc(N(C)C)o2)C(=O)N(C)C1=O` [Example 4], for which the Solubility in data set [1] (in benzyl alcohol) was greater than 1%. Besides, the “ε (molar extinction coefficient)” value in data set [2] was found to be 53360 L/mol/cm. Moreover, in data set [2] (in dioxane), the “UV λmax” value was 483 nm. The λ1/2-λ1/10 in data set [2] (short wavelength flank) is 32 nm.

For `CC1=C([n+]2ccccc2)C(=O)NC(=O)/C1=C/C=C1\N(C)c2ccccc2C1(C)C` [Example 3], the Solubility in data set [1] (setting [3]) is reported as greater than 2%. Also, in data set [2], the “ε (molar extinction coefficient)” value came out at 86510 L/mol/cm. The same molecule yielded a UV λmax in data set [2] (in methanol) of 513 nm. The λ1/2-λ1/10 in data set [2] (short wavelength flank) is 38 nm.

The molecule `COc1ccc(N(C)C=CC=C2C(=O)NC(=O)C([n+]3ccccc3)=C2C)cc1.[O-][Cl+3]([O-])([O-])[O-]` [Example 75] displayed a ε in data set [2] (Table 3) of 62780 L/mol/cm. Also, the λmax in data set [2] (Table 3, in methanol) is reported as 469^5) nm.

Take `CCOC(=O)C(C#N)=c1[nH]c(=O)c(=CC=C2N(C)c3ccc(C(=O)OC)cc3C2(C)C)c(C)c1C(=O)OCC` [Example 65]: the ε in data set [2] (Table 2) was 142900 L/mol/cm. Also, in data set [2] (Table 2, in methanol), the λmax is 587^5) nm.

As for `CN1C(=CC=C(C#N)c2nc3ccccc3s2)C(C)(C)c2ccccc21` [Example 57], in data set [2] (Table 2), the ε came out at 57230 L/mol/cm. In data set [2] (Table 2, in dioxane), the λmax came out at 462 nm. The λ1/2-λ1/10 in data set [2] (setting [4]) is 34^3) nm.

In data set [2] (Table 2), `CCCOC(=O)C(C#N)=CC=C1N(C)c2ccccc2C1(C)C` [Example 38] showed a ε of 60390 L/mol/cm. In data set [2] (Table 2, in dioxane), this molecule came in with a λmax of 429 nm. Further, the λ1/2-λ1/10 in data set [2] (setting [4]) is listed as 30^3) nm. For the same molecule, the Δλ in data set [2] (Table 2, |λDMF - λdioxane|) is recorded as 7 nm.

On to `CCCN1C(=O)C(=CC=CN(C)c2ccc(OC)cc2)C(C)=C(C#N)C1=O` [Example 74], for which the ε in data set [2] (Table 3) was 73010 L/mol/cm. The molecule also registered a λmax in data set [2] (Table 3, in dioxane) of 482 nm. Also, in data set [2] (Table 3, |λDMF-λdioxane|), the Δλ was 4.3 nm.
